Measurements published in patent US7811352B2, “Fertilizer compositions and methods of using” (priority 2005, dated 2010).

Legend:
[1] = tested on: ultra-dwarf Bermuda grass; assay: Turfgrass quality and color ratings, ultra-dwarf Bermuda grass greens (Example 11); format: in vivo; design: key: 1-10 scale: 10 = dark green, 6 = initially acceptable, 1 = dead/brown; conditions: scale 1-10
Text: In this Example, the effect of a fertilizer comprising lysine on warm season turfgrass growth was examined. The effects of lysine (HCl) and LIQUID LYSINE on a common type of golf course greens quality turfgrass (ultra-dwarf Bermuda grass) were compared with those of urea and Milorganite.
Twelve fertilizer treatments comprising three concentrations of each fertilizer composition (Milorganite (N—P—K, 6-2-0), urea (N—P—K, 46-0-0), LIQUID LYSINE (N—P—K, 10-2-1), and lysine (HCl) (N—P—K, 15-2-1)) were prepared and applied to 3 replications of ultra-dwarf Bermuda grass. The lysine (HCl) was dissolved in water prior to application. Each fertilizer treatment was applied in concentrations of 0.125 lb N/1000 ft^2/week, 0.25 lb N/1000 ft^2/week and 0.75 lb N/1000 ft^2/week. The urea, LIQUID LYSINE and lysine (HCl) were applied as foliar liquids, while Milorganite was applied as a granular fertilizer. Plot size was 1 m×1 m set up as a randomized complete block. Plots were mowed at 0.125 inches before fertilizer application. Irrigation (0.15 inch) was applied following application. Plots were rated for turfgrass quality and color (scale of 1-10 where 10=dark green turf, 1=dead/brown turf, and 6=initially acceptable turf) and phytotoxicity (scale of 0-5, where 5=worst, and 2=minimally objectionable) throughout the study period. Quality, color, and phytotoxicity were measured on 2 days before application (day −2) and day 2, day 5, day 15 and day 21 after application. All data was subject to statistical analysis and significant means were determined. Average turfgrass quality ratings for the treatments are presented in Table 12 and the quality results for application rates of 0.25 lb N/1000 ft^2/week are graphically presented in FIG. 6.

[2] = tested on: Pennlinks creeping bentgrass for greens; assay: Turfgrass quality rating, greens creeping bentgrass (Example 16); format: in vivo; conditions: scale of 1-9
Text: In this Example, the effect of a fertilizer comprising lysine on cool season greens quality turfgrass growth was examined. The effects of lysine (HCl) and LIQUID LYSINE on a common type of golf course greens quality turfgrass (Pennlinks creeping bentgrass for greens, mown at 0.1875 in height of cut) were compared with those of urea, Milorganite and a blended fertilizer (a blend of methylene urea and urea in an approximately 1:1 ratio).
Fifteen fertilizer treatments comprising three concentrations of each fertilizer composition (Milorganite (N—P—K, 6-2-0), urea (N—P—K, 46-0-0), a blended fertilizer, LIQUID LYSINE N—P—K, 10-2-1), and lysine (HCl) (N—P—K, 15-2-1)) were prepared and applied to 3 replications of well established Pennlinks creeping bentgrass mown to 0.1875 in height cut. The urea, lysine (HCl), and LIQUID LYSINE were dissolved/suspended in 1.5 gal water prior to application. Each fertilizer treatment was applied in concentrations of 0.125 lb N/1000 ft^2/week, 0.250 lb N/1000 ft^2/week and 0.750 lb N/1000 ft^2/week. The urea, LIQUID LYSINE and lysine (HCl) were applied as foliar liquids, while Milorganite and blended fertilizer were applied as granular fertilizers. Plot size was 4 ft×8 ft laid out in a replicated complete block design. Plots were mowed at 0.1875 inches height before fertilizer application and mowed five times per week to 0.1875 inch height. Grass clippings were removed from the plots after each mowing. Irrigation (0.15 inch) was applied following application and daily thereafter. Plots were rated for turfgrass quality (scale of 1-9 where 9=dark green turf, 1=dead/brown turf, and 6=minimally acceptable turf) and phytotoxic injury (scale of 0-9 where 9=significant foliar injury and 2=minimally objectionable foliar injury) throughout the study period. Quality was measured prior to application (day 0) and day 37, day 70 and day 95 after application. Injury was measured on day 37, day 70 and day 95 after application. Ai) additional set of turfgrass plots were fertilized with three treatments of a soy concentrate fertilizer with the same application rates and methods. The quality and phytotoxic injury of the soy concentrate fertilizer plots were measured on day 95. All data was subject to statistical analysis and significant means were determined.

[3] = Weekly Rate 0.125 lbs N/1000 ft^2, Day 2
[4] = Weekly Rate 0.125 lbs N/1000 ft^2, Day 5
[5] = Weekly Rate 0.125 lbs N/1000 ft^2, Day 15
[6] = Weekly Rate 0.125 lbs N/1000 ft^2, Day 21
[7] = Weekly Rate 0.125 lbs N/1000 ft^2, Day −2 (before application)
[8] = Weekly Rate 0.25 lbs N/1000 ft^2, Day 2
[9] = Weekly Rate 0.25 lbs N/1000 ft^2, Day 5
[10] = Weekly Rate 0.25 lbs N/1000 ft^2, Day 15
[11] = Weekly Rate 0.25 lbs N/1000 ft^2, Day 21
[12] = Weekly Rate 0.25 lbs N/1000 ft^2, Day −2 (before application)
[13] = Weekly Rate 0.75 lbs N/1000 ft^2, Day 2
[14] = Weekly Rate 0.75 lbs N/1000 ft^2, Day 5
[15] = Weekly Rate 0.75 lbs N/1000 ft^2, Day 15
[16] = Weekly Rate 0.75 lbs N/1000 ft^2, Day 21
[17] = Weekly Rate 0.75 lbs N/1000 ft^2, Day −2 (before application)
[18] = Weekly Rate 0.125 lbs N/1000 ft^2, Day 0
[19] = Weekly Rate 0.125 lbs N/1000 ft^2, Day 37
[20] = Weekly Rate 0.125 lbs N/1000 ft^2, Day 70
[21] = Weekly Rate 0.125 lbs N/1000 ft^2, Day 95
[22] = Weekly Rate 0.25 lbs N/1000 ft^2, Day 0
[23] = Weekly Rate 0.25 lbs N/1000 ft^2, Day 37
[24] = Weekly Rate 0.25 lbs N/1000 ft^2, Day 70
[25] = Weekly Rate 0.25 lbs N/1000 ft^2, Day 95
[26] = Weekly Rate 0.75 lbs N/1000 ft^2, Day 0
[27] = Weekly Rate 0.75 lbs N/1000 ft^2, Day 37
[28] = Weekly Rate 0.75 lbs N/1000 ft^2, Day 70
[29] = Weekly Rate 0.75 lbs N/1000 ft^2, Day 95

Cl.NCCCC[C@H](N)C(=O)O [Lys (HCl) 15% N, L-lysine monohydrochloride]
Color Rating - Dwarf Bermuda Grass [1, 3]: 7.2bc
Quality Ratings - Dwarf Bermuda Grass [1, 3]: 7.3bcd
Color Rating - Dwarf Bermuda Grass [1, 4]: 7.0cd
Quality Ratings - Dwarf Bermuda Grass [1, 4]: 6.7de
Color Rating - Dwarf Bermuda Grass [1, 5]: 6.8c-f
Quality Ratings - Dwarf Bermuda Grass [1, 5]: 6.3ef
Color Rating - Dwarf Bermuda Grass [1, 6]: 6.5cd
Quality Ratings - Dwarf Bermuda Grass [1, 6]: 6.2cd
Color Rating - Dwarf Bermuda Grass [1, 7]: 6.8
Quality Ratings - Dwarf Bermuda Grass [1, 7]: 6.8
Color Rating - Dwarf Bermuda Grass [1, 8]: 7.2bc
Quality Ratings - Dwarf Bermuda Grass [1, 8]: 7.2cd
Color Rating - Dwarf Bermuda Grass [1, 9]: 7.2bcd
Quality Ratings - Dwarf Bermuda Grass [1, 9]: 7.2cd
Color Rating - Dwarf Bermuda Grass [1, 10]: 7.2bcd
Quality Ratings - Dwarf Bermuda Grass [1, 10]: 7.2abc
Color Rating - Dwarf Bermuda Grass [1, 11]: 7.3ab
Quality Ratings - Dwarf Bermuda Grass [1, 11]: 7.2ab
Color Rating - Dwarf Bermuda Grass [1, 12]: 7.0
Quality Ratings - Dwarf Bermuda Grass [1, 12]: 6.5
Color Rating - Dwarf Bermuda Grass [1, 13]: 7.3abc
Quality Ratings - Dwarf Bermuda Grass [1, 13]: 7.5abc
Color Rating - Dwarf Bermuda Grass [1, 14]: 7.2bcd
Quality Ratings - Dwarf Bermuda Grass [1, 14]: 7.5bc
Color Rating - Dwarf Bermuda Grass [1, 15]: 7.7ab
Quality Ratings - Dwarf Bermuda Grass [1, 15]: 7.3abc
Color Rating - Dwarf Bermuda Grass [1, 16]: 7.2b
Quality Ratings - Dwarf Bermuda Grass [1, 16]: 6.8abc
Color Rating - Dwarf Bermuda Grass [1, 17]: 6.7
Quality Ratings - Dwarf Bermuda Grass [1, 17]: 6.5
Quality Rating - Greens Bentgrass [2, 18]: 4.7cd
Quality Rating - Greens Bentgrass [2, 19]: 5.0de
Quality Rating - Greens Bentgrass [2, 20]: 6.0bc
Quality Rating - Greens Bentgrass [2, 21]: 6.0ab
Quality Rating - Greens Bentgrass [2, 22]: 4.7cd
Quality Rating - Greens Bentgrass [2, 23]: 6.0bcd
Quality Rating - Greens Bentgrass [2, 24]: 6.0bc
Quality Rating - Greens Bentgrass [2, 25]: 6.3ab
Quality Rating - Greens Bentgrass [2, 26]: 6.0a
Quality Rating - Greens Bentgrass [2, 27]: 7.0ab
Quality Rating - Greens Bentgrass [2, 28]: 7.0a
Quality Rating - Greens Bentgrass [2, 29]: 7.0a

NC(N)=O [Urea, urea, reference compound]
Color Rating - Dwarf Bermuda Grass [1, 3]: 7.7ab
Quality Ratings - Dwarf Bermuda Grass [1, 3]: 7.7abc
Color Rating - Dwarf Bermuda Grass [1, 4]: 7.7ab
Quality Ratings - Dwarf Bermuda Grass [1, 4]: 7.5bc
Color Rating - Dwarf Bermuda Grass [1, 5]: 7.2bcd
Quality Ratings - Dwarf Bermuda Grass [1, 5]: 7.0bcd
Color Rating - Dwarf Bermuda Grass [1, 6]: 6.8bc
Quality Ratings - Dwarf Bermuda Grass [1, 6]: 6.7abc
Color Rating - Dwarf Bermuda Grass [1, 7]: 7.0
Quality Ratings - Dwarf Bermuda Grass [1, 7]: 6.5
Color Rating - Dwarf Bermuda Grass [1, 8]: 7.7ab
Quality Ratings - Dwarf Bermuda Grass [1, 8]: 7.7abc
Color Rating - Dwarf Bermuda Grass [1, 9]: 7.3abc
Quality Ratings - Dwarf Bermuda Grass [1, 9]: 7.5bc
Color Rating - Dwarf Bermuda Grass [1, 10]: 7.3bc
Quality Ratings - Dwarf Bermuda Grass [1, 10]: 7.0bcd
Color Rating - Dwarf Bermuda Grass [1, 11]: 7.3ab
Quality Ratings - Dwarf Bermuda Grass [1, 11]: 6.8abc
Color Rating - Dwarf Bermuda Grass [1, 12]: 6.7
Quality Ratings - Dwarf Bermuda Grass [1, 12]: 6.3
Color Rating - Dwarf Bermuda Grass [1, 13]: 7.8a
Quality Ratings - Dwarf Bermuda Grass [1, 13]: 8.2a
Color Rating - Dwarf Bermuda Grass [1, 14]: 7.8a
Quality Ratings - Dwarf Bermuda Grass [1, 14]: 8.3a
Color Rating - Dwarf Bermuda Grass [1, 15]: 8.0a
Quality Ratings - Dwarf Bermuda Grass [1, 15]: 7.5ab
Color Rating - Dwarf Bermuda Grass [1, 16]: 7.8a
Quality Ratings - Dwarf Bermuda Grass [1, 16]: 7.3a
Color Rating - Dwarf Bermuda Grass [1, 17]: 6.8
Quality Ratings - Dwarf Bermuda Grass [1, 17]: 6.3
Quality Rating - Greens Bentgrass [2, 18]: 4.3de
Quality Rating - Greens Bentgrass [2, 19]: 4.7ef
Quality Rating - Greens Bentgrass [2, 20]: 5.7c
Quality Rating - Greens Bentgrass [2, 21]: 5.7b
Quality Rating - Greens Bentgrass [2, 22]: 5.0bc
Quality Rating - Greens Bentgrass [2, 23]: 6.3bc
Quality Rating - Greens Bentgrass [2, 24]: 6.0bc
Quality Rating - Greens Bentgrass [2, 25]: 6.0ab
Quality Rating - Greens Bentgrass [2, 26]: 5.3b
Quality Rating - Greens Bentgrass [2, 27]: 8.0a
Quality Rating - Greens Bentgrass [2, 28]: 7.0a
Quality Rating - Greens Bentgrass [2, 29]: 6.7ab
